Laboratory results: article PMC10824666 (Nature Cancer, 2023)
Like-named read-outs stand apart in the source and are kept apart here. Each block holds one molecule with its values, some of them ahead of it.

Assays:
Assay in all cases: biochemical
Set-up in all cases: Eurofins DiscoverX kinase panel, competitive binding assay at 1 uM, percent of DMSO control
Details in all cases: competitive binding, percent of DMSO control
[1] = molecular target: T1, PLK4 (Homo sapiens, UniProt O00444)
T1 sequence (O00444 1-970): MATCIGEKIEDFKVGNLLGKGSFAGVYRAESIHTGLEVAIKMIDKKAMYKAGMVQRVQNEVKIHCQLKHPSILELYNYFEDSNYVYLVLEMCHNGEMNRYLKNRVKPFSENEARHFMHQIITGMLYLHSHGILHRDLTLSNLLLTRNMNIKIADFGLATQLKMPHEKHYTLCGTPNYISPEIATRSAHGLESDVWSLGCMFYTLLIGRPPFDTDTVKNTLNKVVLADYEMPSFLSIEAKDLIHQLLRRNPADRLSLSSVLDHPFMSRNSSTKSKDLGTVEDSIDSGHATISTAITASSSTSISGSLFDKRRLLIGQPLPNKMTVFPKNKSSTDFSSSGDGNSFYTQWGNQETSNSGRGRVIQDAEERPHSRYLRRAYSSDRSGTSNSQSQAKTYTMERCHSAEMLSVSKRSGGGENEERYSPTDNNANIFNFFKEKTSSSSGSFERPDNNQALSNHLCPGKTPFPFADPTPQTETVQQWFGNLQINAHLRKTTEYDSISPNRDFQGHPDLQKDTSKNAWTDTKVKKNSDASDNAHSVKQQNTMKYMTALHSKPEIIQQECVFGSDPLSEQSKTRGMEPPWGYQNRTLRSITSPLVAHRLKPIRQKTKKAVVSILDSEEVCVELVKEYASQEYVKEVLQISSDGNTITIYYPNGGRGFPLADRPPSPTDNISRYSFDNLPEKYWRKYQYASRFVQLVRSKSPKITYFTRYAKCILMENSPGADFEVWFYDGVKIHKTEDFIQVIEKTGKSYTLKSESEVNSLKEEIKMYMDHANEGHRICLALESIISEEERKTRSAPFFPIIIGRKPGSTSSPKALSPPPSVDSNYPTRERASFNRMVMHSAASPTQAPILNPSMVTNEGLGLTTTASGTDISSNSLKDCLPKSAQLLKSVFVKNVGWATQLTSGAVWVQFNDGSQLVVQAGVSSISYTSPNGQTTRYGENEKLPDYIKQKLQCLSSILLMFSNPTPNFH
How it was run: (§1)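 Competitive binding assay across a 96-kinase panel with KIF18A compounds at 1 µM; values given as percentage of control (POC), single experiment.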

[2] = molecular target: T2, Abl_unphos (Homo sapiens, UniProt P00519)
T2 construct: gene ABL1; non-phosphorylated
T2 sequence (P00519 whole entry): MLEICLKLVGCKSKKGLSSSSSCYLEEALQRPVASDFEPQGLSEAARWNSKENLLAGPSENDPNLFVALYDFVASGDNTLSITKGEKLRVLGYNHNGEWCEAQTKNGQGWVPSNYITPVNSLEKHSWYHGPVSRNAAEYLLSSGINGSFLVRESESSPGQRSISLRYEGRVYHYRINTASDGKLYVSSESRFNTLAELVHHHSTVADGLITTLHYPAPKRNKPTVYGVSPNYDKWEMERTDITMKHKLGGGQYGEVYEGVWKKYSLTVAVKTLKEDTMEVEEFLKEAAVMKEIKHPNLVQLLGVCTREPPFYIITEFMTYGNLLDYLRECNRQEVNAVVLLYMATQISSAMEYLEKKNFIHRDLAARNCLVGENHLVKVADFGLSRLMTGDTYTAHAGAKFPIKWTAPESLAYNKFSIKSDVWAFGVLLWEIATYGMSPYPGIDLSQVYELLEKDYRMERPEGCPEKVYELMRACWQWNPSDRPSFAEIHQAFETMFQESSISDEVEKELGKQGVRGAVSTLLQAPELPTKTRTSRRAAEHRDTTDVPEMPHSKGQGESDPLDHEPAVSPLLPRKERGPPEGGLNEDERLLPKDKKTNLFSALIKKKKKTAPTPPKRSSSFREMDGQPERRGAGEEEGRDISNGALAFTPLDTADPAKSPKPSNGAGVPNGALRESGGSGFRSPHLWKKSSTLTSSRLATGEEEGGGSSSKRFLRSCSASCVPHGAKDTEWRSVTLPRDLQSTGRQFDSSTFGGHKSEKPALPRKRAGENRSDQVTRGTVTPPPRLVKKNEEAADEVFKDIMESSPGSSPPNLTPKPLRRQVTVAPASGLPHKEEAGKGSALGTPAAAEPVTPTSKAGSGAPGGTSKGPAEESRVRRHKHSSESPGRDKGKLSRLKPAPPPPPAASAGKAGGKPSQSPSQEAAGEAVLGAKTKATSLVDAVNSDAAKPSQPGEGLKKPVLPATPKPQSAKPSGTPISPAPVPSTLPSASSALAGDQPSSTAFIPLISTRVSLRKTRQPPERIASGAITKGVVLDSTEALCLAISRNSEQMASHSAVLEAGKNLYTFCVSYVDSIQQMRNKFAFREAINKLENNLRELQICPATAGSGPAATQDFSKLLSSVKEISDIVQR
How it was run: as §1

[3] = molecular target: JAK2 (Homo sapiens, UniProt O60674)
JAK2, sequence (O60674 whole entry): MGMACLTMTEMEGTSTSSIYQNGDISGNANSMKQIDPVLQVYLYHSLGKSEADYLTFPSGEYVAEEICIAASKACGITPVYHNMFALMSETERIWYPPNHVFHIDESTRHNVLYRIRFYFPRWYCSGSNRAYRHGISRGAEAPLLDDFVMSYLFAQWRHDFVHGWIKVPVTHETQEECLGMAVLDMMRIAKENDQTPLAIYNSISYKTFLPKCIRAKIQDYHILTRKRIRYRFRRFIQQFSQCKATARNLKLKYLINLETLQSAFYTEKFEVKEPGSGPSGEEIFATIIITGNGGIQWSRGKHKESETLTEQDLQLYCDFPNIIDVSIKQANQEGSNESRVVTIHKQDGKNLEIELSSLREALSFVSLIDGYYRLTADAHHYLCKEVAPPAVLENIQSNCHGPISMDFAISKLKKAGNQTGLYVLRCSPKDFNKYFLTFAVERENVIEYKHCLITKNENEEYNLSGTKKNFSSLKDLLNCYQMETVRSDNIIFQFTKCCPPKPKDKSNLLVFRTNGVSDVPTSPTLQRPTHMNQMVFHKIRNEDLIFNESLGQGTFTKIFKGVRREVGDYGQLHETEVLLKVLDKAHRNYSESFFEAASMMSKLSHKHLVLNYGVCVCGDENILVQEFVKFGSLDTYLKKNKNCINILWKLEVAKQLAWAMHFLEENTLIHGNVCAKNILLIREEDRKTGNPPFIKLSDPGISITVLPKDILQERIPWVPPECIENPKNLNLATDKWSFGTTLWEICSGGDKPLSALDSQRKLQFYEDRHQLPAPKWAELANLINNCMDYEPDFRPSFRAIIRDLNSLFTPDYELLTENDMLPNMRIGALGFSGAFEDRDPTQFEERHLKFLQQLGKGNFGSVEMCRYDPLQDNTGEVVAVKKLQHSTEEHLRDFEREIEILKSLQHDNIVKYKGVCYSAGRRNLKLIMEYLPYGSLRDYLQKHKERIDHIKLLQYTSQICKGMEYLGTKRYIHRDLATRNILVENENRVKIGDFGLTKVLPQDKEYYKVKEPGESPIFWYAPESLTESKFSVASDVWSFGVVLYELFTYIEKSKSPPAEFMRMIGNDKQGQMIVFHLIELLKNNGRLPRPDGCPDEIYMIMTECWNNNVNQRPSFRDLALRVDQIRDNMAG
How it was run: as §1

[4] = molecular target: TGFBR2 (Homo sapiens, UniProt P37173)
TGFBR2, sequence (P37173 whole entry): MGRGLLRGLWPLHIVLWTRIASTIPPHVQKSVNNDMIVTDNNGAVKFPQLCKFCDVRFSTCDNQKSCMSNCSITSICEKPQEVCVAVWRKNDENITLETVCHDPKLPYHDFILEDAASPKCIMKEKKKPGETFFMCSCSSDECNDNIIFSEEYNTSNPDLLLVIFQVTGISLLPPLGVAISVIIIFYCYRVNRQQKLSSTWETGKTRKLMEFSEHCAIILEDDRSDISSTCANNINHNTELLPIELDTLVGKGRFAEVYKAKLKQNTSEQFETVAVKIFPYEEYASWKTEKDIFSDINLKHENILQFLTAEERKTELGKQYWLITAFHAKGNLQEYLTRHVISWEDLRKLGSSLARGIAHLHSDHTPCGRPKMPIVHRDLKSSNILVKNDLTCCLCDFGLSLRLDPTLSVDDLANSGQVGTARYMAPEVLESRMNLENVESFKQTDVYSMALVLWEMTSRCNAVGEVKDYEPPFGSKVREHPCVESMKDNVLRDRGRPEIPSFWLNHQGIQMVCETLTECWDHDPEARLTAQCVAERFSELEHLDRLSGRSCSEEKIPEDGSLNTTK
How it was run: as §1

[5] = molecular target: MAP4K1 (Homo sapiens, UniProt Q92918)
MAP4K1, sequence (Q92918 whole entry): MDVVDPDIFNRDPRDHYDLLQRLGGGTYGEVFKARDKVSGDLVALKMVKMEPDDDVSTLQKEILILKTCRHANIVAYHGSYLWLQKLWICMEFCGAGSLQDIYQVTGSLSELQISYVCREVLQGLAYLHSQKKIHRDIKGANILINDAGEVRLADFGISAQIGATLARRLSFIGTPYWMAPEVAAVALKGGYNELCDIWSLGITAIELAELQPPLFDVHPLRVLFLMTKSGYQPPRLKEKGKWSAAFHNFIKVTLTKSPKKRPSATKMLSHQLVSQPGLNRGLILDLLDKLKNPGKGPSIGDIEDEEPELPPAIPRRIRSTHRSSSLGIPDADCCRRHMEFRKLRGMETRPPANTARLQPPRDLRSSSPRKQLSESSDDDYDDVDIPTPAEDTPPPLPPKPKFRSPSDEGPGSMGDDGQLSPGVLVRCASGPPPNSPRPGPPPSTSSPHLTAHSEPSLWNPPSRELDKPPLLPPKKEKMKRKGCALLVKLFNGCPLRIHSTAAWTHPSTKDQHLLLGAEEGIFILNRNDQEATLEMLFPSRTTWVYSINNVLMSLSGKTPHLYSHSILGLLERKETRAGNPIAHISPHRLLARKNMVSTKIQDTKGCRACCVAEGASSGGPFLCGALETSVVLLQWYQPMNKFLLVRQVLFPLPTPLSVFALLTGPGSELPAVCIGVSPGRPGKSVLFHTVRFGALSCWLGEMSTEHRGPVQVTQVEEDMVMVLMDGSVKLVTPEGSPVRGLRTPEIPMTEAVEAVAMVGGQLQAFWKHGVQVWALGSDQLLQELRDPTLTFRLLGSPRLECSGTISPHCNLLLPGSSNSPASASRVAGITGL
How it was run: as §1

[6] = molecular target: MAP3K9 (Homo sapiens, UniProt P80192)
MAP3K9, sequence (P80192 whole entry): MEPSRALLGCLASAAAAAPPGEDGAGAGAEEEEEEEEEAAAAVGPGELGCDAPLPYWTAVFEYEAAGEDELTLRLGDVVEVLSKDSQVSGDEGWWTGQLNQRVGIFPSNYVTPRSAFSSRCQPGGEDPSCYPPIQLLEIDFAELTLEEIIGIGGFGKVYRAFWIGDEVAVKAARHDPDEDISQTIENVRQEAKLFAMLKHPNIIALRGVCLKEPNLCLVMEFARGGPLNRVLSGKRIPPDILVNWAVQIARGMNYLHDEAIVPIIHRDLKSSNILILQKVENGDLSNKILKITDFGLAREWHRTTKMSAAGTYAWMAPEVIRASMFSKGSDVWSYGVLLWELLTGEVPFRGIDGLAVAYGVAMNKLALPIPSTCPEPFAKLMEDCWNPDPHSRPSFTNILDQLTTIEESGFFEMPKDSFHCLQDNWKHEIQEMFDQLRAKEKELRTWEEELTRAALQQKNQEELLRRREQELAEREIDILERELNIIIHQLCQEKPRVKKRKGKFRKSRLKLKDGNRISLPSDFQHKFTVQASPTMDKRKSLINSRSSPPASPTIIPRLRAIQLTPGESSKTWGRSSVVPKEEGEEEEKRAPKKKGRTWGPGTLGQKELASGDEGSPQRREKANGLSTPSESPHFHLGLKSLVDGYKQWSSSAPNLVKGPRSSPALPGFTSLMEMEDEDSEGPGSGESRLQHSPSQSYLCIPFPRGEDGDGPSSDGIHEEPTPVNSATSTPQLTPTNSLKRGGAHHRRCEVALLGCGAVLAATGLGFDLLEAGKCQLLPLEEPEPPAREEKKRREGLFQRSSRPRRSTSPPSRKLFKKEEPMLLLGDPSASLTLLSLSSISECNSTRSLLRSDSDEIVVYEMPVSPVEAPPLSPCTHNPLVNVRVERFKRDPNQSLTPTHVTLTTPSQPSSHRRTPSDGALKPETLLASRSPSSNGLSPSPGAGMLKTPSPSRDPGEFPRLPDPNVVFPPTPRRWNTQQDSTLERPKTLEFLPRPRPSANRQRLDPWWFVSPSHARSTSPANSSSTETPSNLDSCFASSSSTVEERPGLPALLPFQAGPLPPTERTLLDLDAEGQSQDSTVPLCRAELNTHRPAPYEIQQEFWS
How it was run: as §1

[7] = molecular target: CDK4 (Homo sapiens, UniProt P11802)
CDK4, sequence (P11802 whole entry): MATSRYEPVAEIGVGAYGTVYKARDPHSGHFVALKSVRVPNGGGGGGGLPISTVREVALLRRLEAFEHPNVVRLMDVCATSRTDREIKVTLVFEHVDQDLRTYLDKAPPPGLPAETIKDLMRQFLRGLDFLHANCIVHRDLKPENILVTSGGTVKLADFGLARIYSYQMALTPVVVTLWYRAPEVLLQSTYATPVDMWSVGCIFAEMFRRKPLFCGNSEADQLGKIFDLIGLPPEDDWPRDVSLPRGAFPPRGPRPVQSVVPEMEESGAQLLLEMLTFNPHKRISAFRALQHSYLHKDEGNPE
How it was run: as §1

[8] = read-out: Kinome Profiling performed by Eurofins DiscoverX / AM-0277, 1.0 µM / POC
[9] = read-out: Kinome Profiling performed by Eurofins DiscoverX / AM-1882, 1.0 µM / POC
[10] = read-out: Kinome Profiling performed by Eurofins DiscoverX / AM-5308, 1.0 µM / POC

remaining activity at 1 µM [1, 8]: 100%
remaining activity at 1 µM [2, 8]: 100%
remaining activity at 1 µM [3, 8]: 100%
remaining activity at 1 µM [4, 8]: 75%
remaining activity at 1 µM [5, 8]: 88%
remaining activity at 1 µM [6, 8]: 100%
remaining activity at 1 µM [7, 8]: 100%
Compound: CC(C)(CO)Nc1ccc(C(=O)Nc2cccc(S(=O)(=O)C3CCCC3)c2)c(N2CCC3(CC2)CC3)n1 [AM-0277]

remaining activity at 1 µM [1, 9]: 93.5%
remaining activity at 1 µM [2, 9]: 58%
remaining activity at 1 µM [3, 9]: 100%
remaining activity at 1 µM [4, 9]: 99.5%
remaining activity at 1 µM [5, 9]: 90%
remaining activity at 1 µM [6, 9]: 100%
remaining activity at 1 µM [7, 9]: 64%
Compound: CC(C)(C)NS(=O)(=O)c1cccc(NC(=O)c2ccc(S(=O)(=O)NC(C)(C)C)cc2N2CCC3(CC2)CC3)c1 [AM-1882]

remaining activity at 1 µM [1, 10]: 87.5%
remaining activity at 1 µM [2, 10]: 93%
remaining activity at 1 µM [3, 10]: 94.5%
remaining activity at 1 µM [4, 10]: 100%
remaining activity at 1 µM [5, 10]: 98.5%
remaining activity at 1 µM [6, 10]: 95%
remaining activity at 1 µM [7, 10]: 98.5%
Compound: C[C@@H]1CN(c2cccc(NC(=O)c3ccc(NS(=O)(=O)CCO)cc3N3CCC4(CC3)CC4)n2)CCO1 [AM-5308]
